The test system of one series is KB cells. The note with it: Chinese Chemical Letters 2013, 24, 57-58, read-out: cytotoxicity against KB cells in vitro, IC50; cited from earlier work.
For series [1], the system named is cervical C-33A cancer cell line. Description: SRB assay for anticancer activity, C-33A. Format: cell-based, human. The note with it: 48 h; for inhibition at 10 µM: Homo sapiens, read-out: % Inhibition at 10 μM Solution in Cancer Cell Line. (The SRB assay estimates cell density from bound dye.)
In series [2] the test system is Lung (A549) cancer cell line. Description: SRB assay for anticancer activity, A549. Format: cell-based, human. The note with it: 48 h; for inhibition at 10 µM: Homo sapiens, read-out: % Inhibition at 10 μM Solution in Cancer Cell Line. Here is the method:
(§1) SRB Assay Protocol for Anticancer Activity:
(§2) Addition of cells: The human cancer cell lines Ovary (SK-OV-3), Lung (A549) and Breast (MCF-7) maintained in RPMI-1640 medium; Cervical (HeLa), Head & Neck (FaDu) and Colorectal adenocarcinoma (SW620) are maintained in DMEM medium. The enumerated cells are dispensed in a 96-well tissue culture plate. Each well receives 100 μl of the cell suspension containing 10,000-20,000 cells (depending upon the nature of cell line). The cells are then incubated at 37° C. in 5% CO2 concentration for 24 h before addition of the test samples/standard drugs.
(§3) Addition of test samples: 100 μl of working solution of the test sample is added to the cell monolayer to give a final concentration 10 μM (pure compound) For each sample, duplicate wells are included.
(§4) Positive (Drug) and Negative (Vehicle) Controls: In every assay plate both positive and vehicle controls are included. In positive control well, adriamycin (Doxorubicin) is added at 10 μM concentration. In vehicle control wells, DMSO is added. In all assay wells the final concentration of DMSO is 0.1%. The plates are then incubated at 37° C. in 5% CO2 concentration for 48 h.
(§5) Addition of SRB and Colorimetric reading: After 48 h incubation, cells attached to substratum of the plate are fixed by adding cold 50% trichloroacetic acid (TCA, 50 μl/well) on top of the medium and incubated at 4° C. for 1 h. After that the plate is gently washed 5 times with slow running tap water via plastic tubing to remove TCA, culture medium and dead cells. The water stream should not be injected very fast or directly on to the bottom of the wells as this can cause cell monolayer to detach. After washing, the plates are allowed to dry in air (plates can be stored for long periods at room temperature after fixing and drying step) […], 50 μl/well of SRB solution is added and left at room temperature for 30 min. At the end of the staining period, unbound SRB is removed by quickly rinsing plates 4-5 times with 1% (v/v) acetic acid. Plates are allowed to air-dry at room temperature (Stained and dried plates can be stored indefinitely at room temperature). 150 μl of 10 mM Tris base solution is added to each well and plate is shaken for 15 min on a gyratory shaker to solubilize the protein-bound dye. Alternatively, if a shaker is unavailable, SRB gets solubilized after 30 min in Tris base solution. Absorbance is measured at 510 nm in a microplate spectrophotometer.
(§6) Percentage of cell growth inhibition in presence of the test sample is calculated as follows: […]

The subject of series [3] is Colon COLO205 cancer cell line. Description: SRB assay for anticancer activity, COLO205. Conditions: for inhibition at 10 µM: Homo sapiens, COLO 205, 48 h, read-out: % Inhibition at 10 μM Solution in Cancer Cell Line. Format: cell-based, human.
The test system of series [4] is Head & Neck (FaDu) cancer cell line. Description: SRB assay for anticancer activity, FaDu. Conditions: 48 h; for inhibition at 10 µM: Homo sapiens, read-out: % Inhibition at 10 μM Solution in Cancer Cell Line. Format: cell-based, human. On the procedure:
as §1, §2, §3, §4, §5, §6

Series [5] has as its system Head & Neck KB cancer cell line. Description: SRB assay for anticancer activity, KB. Format: cell-based, human. The note with it: 48 h; for inhibition at 10 µM: Homo sapiens, read-out: % Inhibition at 10 μM Solution in Cancer Cell Line.
The subject of series [6] is Breast (MCF-7) cancer cell line. Description: SRB assay for anticancer activity, MCF-7. The note with it: for inhibition at 10 µM: Homo sapiens, MCF7, 48 h, read-out: % Inhibition at 10 μM Solution in Cancer Cell Line. The series is classed as cell-based, human. On the procedure:
as §1, §2, §3, §4, §5, §6

The subject of series [7] is Lung NCI-H358 cancer cell line. Kind of series: SRB assay for anticancer activity, NCI-H358. The series is classed as cell-based, human. Conditions: 48 h; for inhibition at 10 µM: Homo sapiens, read-out: % Inhibition at 10 μM Solution in Cancer Cell Line.
Series [8] concerns Ovary NIH:OVACR-3 cancer cell line. Kind of series: SRB assay for anticancer activity, NIH:OVACR-3. The note with it: 48 h; for inhibition at 10 µM: Homo sapiens, read-out: % Inhibition at 10 μM Solution in Cancer Cell Line. Format: cell-based, human.
Series [9] concerns Ovary (SK-OV-3) cancer cell line. Kind of series: SRB assay for anticancer activity, SK-OV-3. Conditions: for inhibition at 10 µM: Homo sapiens, SK-OV-3, Ovary SKOV3, 48 h, read-out: % Inhibition at 10 μM Solution in Cancer Cell Line. The series is classed as cell-based, human. On the procedure: as §1, §2, §3, §4, §5, §6
Series [10] has as its system Lung NCI-H446 cancer cell line. Description: SRB assay for anticancer activity, NCI-H446. The series is classed as cell-based, human. The note with it: 48 h; for inhibition at 10 µM: Homo sapiens, read-out: % Inhibition at 10 μM Solution in Cancer Cell Line.
For series [11], the system named is Colon DLD-1 cancer cell line. Kind of series: SRB assay for anticancer activity, DLD-1. Format: cell-based, human. Conditions: 48 h; for inhibition at 10 µM: Homo sapiens, read-out: % Inhibition at 10 μM Solution in Cancer Cell Line.
The subject of series [12] is Ovary PA1 cancer cell line. Kind of series: SRB assay for anticancer activity, PA1. The series is classed as cell-based, human. The note with it: 48 h; for inhibition at 10 µM: Homo sapiens, read-out: % Inhibition at 10 μM Solution in Cancer Cell Line.
Series [13] has as its system Colorectal adenocarcinoma (SW620) cell line. Description: SRB assay for anticancer activity, SW620. Conditions: for inhibition at 10 µM: Homo sapiens, SW-620, Colon SW620, 48 h, read-out: % Inhibition at 10 μM Solution in Cancer Cell Line. Format: cell-based, human. On the procedure: as §1, §2, §3, §4, §5, §6
The test system of series [14] is Breast MDA-MB-231 cancer cell line. Description: SRB assay for anticancer activity, MDA-MB-231. Format: cell-based, human. Conditions: 48 h; for inhibition at 10 µM: Homo sapiens, read-out: % Inhibition at 10 μM Solution in Cancer Cell Line.
The subject of series [15] is Cervical (HeLa) cancer cell line. Description: SRB assay for anticancer activity, HeLa. Format: cell-based, human. The note with it: 48 h; for inhibition at 10 µM: Homo sapiens, read-out: % Inhibition at 10 μM Solution in Cancer Cell Line. Here is the method: as §1, §2, §3, §4, §5, §6

For orientation: IC50 means the point on the concentration scale where inhibition reaches its midpoint. As usually defined, the inhibition is the drop in the measured response relative to a control, in per cent. A word on the % Inhibition: it is the relative decrease from the control value, in per cent.

Take `Cc1cc2c(c3c1C(=O)NC3=O)C(O)C(C)(C)C2` (stereo not shown) [Compound 1]: in the series with KB cells, the IC50 is 16.6 µM.

With `CCOC(=O)C1(C(=O)OCC)Cc2cc(C)c3c(c2C1)C(=O)N(CCO)C3=O` [Compound 23, Diethyl 2-(2-hydroxyethyl)-4-methyl-1,3-dioxo-2,3,6,8-tetrahydrocyclopenta[e]isoindole-7,7(1H)-dicarboxylate], the inhibition at 10 µM was determined as 0% in [1]; 19.2% in series [2]; 0% in series [3]; 11% in series [4]; 0% in series [5]; 8.24% in series [6]. Further, the inhibition at 10 µM was 0% in series [7]; 0% in series [8]; -7.23% in series [9]; 0% in series [10]; 0% in [11]; 0% in series [12]. Also, the figures for the inhibition at 10 µM in series [13], in series [14] and in series [15] were 13.3%, 0% and 31%, respectively.

As for “8-Hydroxy-4,7,7-trimethyl-7,8-dihydrocyclopenta[e]isoindole-1,3(2H,6H)-dione [Compound 8]”, the “% Inhibition at 10 μM Solution in Cancer Cell Line” value (“% Inhibition at 10 μM Solution” for short) in [1] came to 0.00%; in series [2], 6.05%; in [3] (48 h), 0.00%; in series [4], 2.10%; in [5], 0.00%; in series [6] (48 h), 4.31%. Besides, the “% Inhibition at 10 μM Solution” value is 0.00% in [7]; 0.00% in [8]; 5.55% in [9] (Ovary SKOV3, 48 h); 0.00% in [10]; 0.00% in [11]; 0.00% in series [12]. Also, the “% Inhibition at 10 μM Solution” value in series [13] (Colon SW620, 48 h) is reported as −11.48%; in [14] it was 0.00%; in [15], 29.05%.

For the compound `CCOC(=O)C1(C(=O)OCC)Cc2cc(C)c3c(c2C1)C(=O)NC3=O` [Compound 22, Diethyl 4-methyl-1,3-dioxo-2,3,6,8-tetrahydrocyclopenta[e]isoindole-7,7(1H)-dicarboxylate], the inhibition at 10 µM in [1] amounted to 0%; in series [2] it was 27%; in [3], 0%; in series [4], 10.3%; in series [5], 0%; in [6], 10.4%. Further, the inhibition at 10 µM is 0% in series [7]; 0% in [8]; -9.36% in series [9]; 0% in series [10]; 0% in [11]; 0% in series [12]. For the same compound, the inhibition at 10 µM in series [13] was 15.4%; in series [14] it was 0%; in series [15], 34.3%.

`CCOC(=O)C1(C(=O)OCC)Cc2ccc3c(c2C1)C(=O)NC3=O` [Compound 18, Diethyl 1,3-dioxo-2,3,6,8-tetrahydrocyclopenta[e]isoindole-7,7(1H)-dicarboxylate]: the inhibition at 10 µM in series [1] was 0%; in [2], 28.8%; in series [3] it was 0%; in [4], -0.05%; in [5], 0%; in series [6], 6.84%. Moreover, the inhibition at 10 µM in series [7] is 0%; in series [8], 0%; in series [9], -1.46%; in series [10] it was 0%; in series [11], 0%; in series [12], 0%. The inhibition at 10 µM was 13.2% in series [13], 0% in [14] and 20.9% in series [15].

Regarding `CCOC(=O)C1(C(=O)OCC)Cc2ccc3c(c2C1)C(=O)N(CCO)C3=O` [Compound 19, Diethyl 2-(2-hydroxyethyl)-1,3-dioxo-2,3,6,8-tetrahydrocyclopenta[e]isoindole-7,7(1H)-dicarboxylate], the inhibition at 10 µM in [1] stood at 0%; in series [2] it was 29%; in series [3] it was 0%; in series [4] it was 0.16%; in series [5], 0%; in series [6] it was 3.44%. The inhibition at 10 µM in series [7] is 0%; in series [8], 0%; in [9] it was -3.91%; in series [10], 0%; in series [11], 0%; in series [12] it was 0%. Besides, the inhibition at 10 µM in series [13] stood at 15.2%; in series [14] it was 0%; in series [15] it was 25.7%.

Consider `COc1cccc2c1C(=O)c1c(O)c3c(c(O)c1C2=O)C[C@@](O)(C(=O)CO)C[C@@H]3O[C@H]1C[C@H](N)[C@H](O)[C@H](C)O1` [Doxorubicin, reference compound], for which the inhibition at 10 µM in series [1] worked out at 0%; in [2] it was 69.1%; in series [3] it was 0%; in [4], 89.6%; in series [5] it was 0%; in series [6] it was 66.7%. For the same compound, the inhibition at 10 µM in [7] came to 0%; in series [8], 0%; in [9], 58%; in series [10], 0%; in series [11], 0%; in [12] it was 0%. Moreover, the inhibition at 10 µM in series [13] worked out at 80.3%; in series [14], 0%; in series [15] it was 89.5%.

For the compound `CCOC(=O)C1(C(=O)OCC)Cc2cc(C)c3c(c2C1)C(=O)N(S(=O)(=O)c1ccc(F)cc1)C3=O` [Compound 24, Diethyl 2-((4-fluorophenyl)sulfonyl)-4-methyl-1,3-dioxo-2,3,6,8-tetrahydrocyclopenta[e]isoindole-7,7(1H)-dicarboxylate], the inhibition at 10 µM amounted to 0% in [1]; 48.2% in series [2]; 0% in [3]; 59.4% in series [4]; 0% in series [5]; 34.9% in [6]. The inhibition at 10 µM in [7] is 0%; in series [8], 0%; in series [9], 21.2%; in series [10] it was 0%; in series [11] it was 0%; in series [12] it was 0%. Besides, the inhibition at 10 µM in [13] amounted to 50.5%; in [14] it was 0%; in [15], 65.2%.

Source of the values: patent US9771325B2, “Tricyclic compounds and preparation thereof” (Council of Scientific & Industrial Research, priority 2014, dated 2017).
